Experiments:
[1] = test system: human plasma protein; format: in vitro ADME
[2] = Excretion after single IV dose of radiolabeled ceftaroline fosamil in healthy male adults; format: in vivo, human; conditions: in vivo
Description: Following administration of a single 600 mg IV dose of radiolabeled ceftaroline fosamil to healthy male adults, approximately 87% of radioactivity was recovered in urine and 6% in feces. The majority of the radioactivity (˜90%) was recovered within 48 hours. Of the radioactivity recovered in urine, approximately 64% was excreted as ceftaroline and approximately 2% as ceftaroline-M-1.

[3] = test system: CYP1A2, CYP2B6, CYP2C8, CYP2C9, CYP2CI9, or CYP3A4/5; experiment: CYP induction in human hepatocytes; format: in vitro ADME
[4] = test system: Community-Acquired Bacterial Pneumonia (CABP); experiment: Two Phase 3 studies in CABP, clinical cure at TOC (single and integrated/combined); format: in vivo, human; conditions: TOC; for Combined clinical cure rate: combined data of the two CAP studies; for Weighted treatment difference (95% CI), ceftaroline versus ceftriaxone: combined data
Description: In both treatment groups of CABP Study 1, two doses of oral clarithromycin (500 mg q12 h), were administered as adjunctive therapy starting on Study Day 1. No adjunctive macrolide therapy was used in CABP Study 2. Patients with new or progressive pulmonary infiltrate(s) on chest radiography and clinical signs and symptoms consistent with CABP with the need for hospitalization and IV therapy were enrolled in the studies. Treatment duration was 5 to 7 days. A switch to oral therapy was not allowed. The Modified Intent-to-Treat Efficacy (MITTE) population, included all patients who received any amount of study drug according to their randomized, treatment group and were in PORT (Pneumonia Outcomes Research Team) Risk Class III or IV.
The primary efficacy endpoint was the clinical response at the Test of Cure (TOC) visit in the co-primary Ce and MITTE populations (Table 4).

[5] = test system: MDRSP; experiment: Example 4 CAP study, outcome by baseline pathogen; format: in vivo, S. pneumoniae
Description: (§1) Per-pathogen clinical cure rate and favorable microbiological outcome rate at TOC in the mMITTE and ME Populations;

[6] = test system: H. influenzae; experiment: Example 4 CAP study, outcome by baseline pathogen; format: in vivo
Description: as §1

[7] = test system: H. parainfluenzae; experiment: Example 4 CAP study, outcome by baseline pathogen; format: in vivo
Description: as §1

[8] = test system: K. pneumoniae; experiment: Example 4 CAP study, outcome by baseline pathogen; format: in vivo
Description: as §1

[9] = test system: S. aureus; experiment: Example 4 CAP study, outcome by baseline pathogen; format: in vivo
Description: as §1

[10] = test system: S. pneumoniae; experiment: Example 4 CAP study, outcome by baseline pathogen; format: in vivo
Description: as §1

[11] = test system: community-acquired pneumonia (CAP); experiment: Example 5 Phase 3 study, ceftaroline vs ceftriaxone with adjunctive clarithromycin in CAP, efficacy; format: in vivo, human
Description: The secondary objective of the study was to evaluate the following: the clinical response at end-of-therapy (EOT); the microbiological favorable outcome rate at TOC; the overall (clinical and radiographic) success rate at TOC; the clinical and microbiological response by pathogen at TOC; clinical relapse at late follow-up (LFU); microbiological reinfection/recurrence at LFU; and safety.
The primary efficacy outcome measures were the per-subject clinical cure rate at TOC in the CE and MITTE Populations. Subjects were considered clinically cured at TOC if they had total resolution of all signs and symptoms of the baseline infection, or improvement of the infection such that no further antimicrobial therapy was necessary.
Non-inferiority was concluded if the lower limit of the 95% CI was higher than −10%.

[12] = test system: MDRSP; experiment: Example 5 CAP study, outcome by baseline pathogen; format: in vivo, S. pneumoniae
Description: as §1

[13] = test system: E. coli; experiment: Example 5 CAP study, outcome by baseline pathogen; format: in vivo
Description: as §1

[14] = test system: H. influenzae; experiment: Example 5 CAP study, outcome by baseline pathogen; format: in vivo
Description: as §1

[15] = test system: H. parainfluenzae; experiment: Example 5 CAP study, outcome by baseline pathogen; format: in vivo
Description: as §1

[16] = test system: S. aureus; experiment: Example 5 CAP study, outcome by baseline pathogen; format: in vivo
Description: as §1

[17] = test system: S. pneumoniae; experiment: Example 5 CAP study, outcome by baseline pathogen; format: in vivo
Description: as §1

[18] = human, in vivo
[19] = human, microsomes
[20] = human, in vivo; remark: listed apart in the source
Description: (§2) Study-Drug: Ceftaroline fosamil was administered in two consecutive 300 mg intravenous (IV) infusions over 30 minutes, every 12 hours (q12h). The 600-mg dose of ceftaroline fosamil infused over 60 minutes was split into two infusions in order to maintain the blind. For subjects with moderate renal impairment (30 ml/min<CrCl≤50 ml/min), as estimated by the Cockroft-Gault formula, unblinded pharmacy staff or unblinded study staff could adjust the dose of ceftaroline fosamil to two consecutive 200 mg infusions and readjust dose to two 300 mg infusions when renal function improved (CrCl>50 mL/min). The duration of treatment was between 5 to 7 days.
(§3) All subjects who received any amount of study drug were included in the safety analysis. Safety measures included monitoring for adverse events (AE) up to TOC and serious adverse events (SAE) through LFU; recording vital signs, physical examination, electrocardiogram (ECG), and clinical laboratory findings (clinical chemistry, hematology, and urinalysis), at prespecified times throughout the study.

[21] = clinical; conditions: human, in vivo
[22] = Example 4 CAP study, safety
Description: as §2, §3

SMILES: CCO/N=C(\C(=O)N[C@@H]1C(=O)N2C(C(=O)[O-])=C(Sc3nc(-c4cc[n+](C)cc4)cs3)CS[C@H]12)c1nsc(N)n1 [Ceftaroline, ceftaroline]
- binding to human plasma protein [1]: approximately 20%
- route of elimination [2]: primarily eliminated by the kidneys
- induction of CYP isoenzymes [3]: not inducers
- Combined clinical cure rate ([4]; CE): 387/459 (84.3) %
- Combined clinical cure rate ([4]; ME): 131/154 (85.1) %
- Combined clinical cure rate ([4]; MITTE): 479/580 (82.6) %
- Combined clinical cure rate ([4]; mMITTE): 138/165 (83.6) %
- Weighted treatment difference (95% CI), ceftaroline versus ceftriaxone ([4]; CE): 6.7 (1.6, 11.8) %
- Weighted treatment difference (95% CI), ceftaroline versus ceftriaxone ([4]; CE, listed as ceftaroline): 6.7%
- Weighted treatment difference (95% CI), ceftaroline versus ceftriaxone ([4]; ME): 9.7 (0.7, 18.8) %
- Weighted treatment difference (95% CI), ceftaroline versus ceftriaxone ([4]; ME, listed as ceftaroline): 9.7%
- Weighted treatment difference (95% CI), ceftaroline versus ceftriaxone ([4]; MITTE): 6.0 (1.4, 10.7) %
- Weighted treatment difference (95% CI), ceftaroline versus ceftriaxone ([4]; mMITTE): 8.7 (−0.0, 17.4) %
- Weighted treatment difference (95% CI), ceftaroline versus ceftriaxone ([4]; mMITTE, listed as ceftaroline): 8.7%
- Favorable Microbiological Outcome at TOC by Baseline Pathogen ([5]; Example 4, ME): 2/2 (100.0)
- Clinical Cure Rate at the TOC Visit by Baseline Pathogen ([5]; Example 4, ME Population): 2/2 (100.0)
- Favorable Microbiological Outcome at TOC by Baseline Pathogen ([6]; Example 4, ME): 13/15 (86.7)
- Clinical Cure Rate at the TOC Visit by Baseline Pathogen ([6]; Example 4, ME Population): 13/15 (86.7)
- Favorable Microbiological Outcome at TOC by Baseline Pathogen ([7]; Example 4, ME): 9/9 (100.0)
- Clinical Cure Rate at the TOC Visit by Baseline Pathogen ([7]; Example 4, ME Population): 9/9 (100.0)
- Favorable Microbiological Outcome at TOC by Baseline Pathogen ([8]; Example 4, ME): 6/6 (100.0)
- Clinical Cure Rate at the TOC Visit by Baseline Pathogen ([8]; Example 4, ME Population): 6/6 (100.0)
- Favorable Microbiological Outcome at TOC by Baseline Pathogen ([9]; Example 4, ME): 11/15 (73.3)
- Clinical Cure Rate at the TOC Visit by Baseline Pathogen ([9]; Example 4, ME Population): 10/15 (66.7)
- Favorable Microbiological Outcome at TOC by Baseline Pathogen ([10]; Example 4, ME): 35/39 (89.7)
- Clinical Cure Rate at the TOC Visit by Baseline Pathogen ([10]; Example 4, ME Population): 33/39 (84.6)
- Difference (ceftaroline minus ceftriaxone), Clinical Cure Rate at EOT ([11]; Example 5, CE): 7.6%
- Difference (ceftaroline minus ceftriaxone), Clinical Success at TOC ([11]; Example 5, CE): 8.4%
- Clinical Success at the TOC Visit ([11]; Example 5, CE population): 194 (86.6) %
- Per-subject Clinical Cure Rate at the EOT Visit ([11]; Example 5, CE population): 197 (87.9) %
- Difference (ceftaroline minus ceftriaxone), Favorable Microbiological Outcome at TOC ([11]; Example 5, ME): 11.0%
- Favorable Microbiological Outcome at the TOC Visit ([11]; Example 5, ME population): 62 (89.9) %
- Difference (ceftaroline minus ceftriaxone), Clinical Cure Rate at EOT ([11]; Example 5, MITTE): 6.3%
- Difference (ceftaroline minus ceftriaxone), Clinical Success at TOC ([11]; Example 5, MITTE): 6.2%
- Clinical Success at the TOC Visit ([11]; Example 5, MITTE population): 244 (83.8) %
- Per-subject Clinical Cure Rate at the EOT Visit ([11]; Example 5, MITTE population): 253 (86.9) %
- Difference (ceftaroline minus ceftriaxone), Favorable Microbiological Outcome at TOC ([11]; Example 5, mMITTE): 9.3%
- Favorable Microbiological Outcome at the TOC Visit ([11]; Example 5, mMITTE population): 66 (88.0) %
- Favorable Microbiological Outcome at TOC by Baseline Pathogen ([12]; Example 5, ME): 2/2 (100.0)
- Clinical Cure Rate at the TOC Visit by Baseline Pathogen ([12]; Example 5, ME Population): 2/2 (100.0)
- Favorable Microbiological Outcome at TOC by Baseline Pathogen ([13]; Example 5, ME): 8/8 (100.0)
- Clinical Cure Rate at the TOC Visit by Baseline Pathogen ([13]; Example 5, ME Population): 8/8 (100.0)
- Favorable Microbiological Outcome at TOC by Baseline Pathogen ([14]; Example 5, ME): 2/3 (66.7)
- Clinical Cure Rate at the TOC Visit by Baseline Pathogen ([14]; Example 5, ME Population): 2/3 (66.7)
- Favorable Microbiological Outcome at TOC by Baseline Pathogen ([15]; Example 5, ME): 7/7 (100.0)
- Clinical Cure Rate at the TOC Visit by Baseline Pathogen ([15]; Example 5, ME Population): 7/7 (100.0)
- Favorable Microbiological Outcome at TOC by Baseline Pathogen ([16]; Example 5, ME): 8/10 (80.0)
- Clinical Cure Rate at the TOC Visit by Baseline Pathogen ([16]; Example 5, ME Population): 8/10 (80.0)
- Favorable Microbiological Outcome at TOC by Baseline Pathogen ([17]; Example 5, ME): 21/24 (87.5)
- Clinical Cure Rate at the TOC Visit by Baseline Pathogen ([17]; Example 5, ME Population): 21/24 (87.5)
- CL/Fm [18]: 9.60 (1.40) L/h
- dose dependence of Cmax and AUC [18]: increased approximately in proportion to increases in dose
- t1/2 [18]: 2.66 (0.40) h
- metabolic turnover [19]: < 12%
- Adverse event: COPD [20]: 8 (2.5) %
- Adverse event: Diarrhea [20]: 12 (3.8) %
- Adverse event: Head ache [20]: 11 (3.5) %
- Adverse event: Pleural effusion [20]: 4 (1.3) %
- Adverse event: Pneumonia [20]: 8 (2.5) %
- study-drug-related TEAE: alanine aminotransferase increased [20]: 0.3%
- study-drug-related TEAE: blood creatinine phosphokinase increased [20]: 1.3%
- study-drug-related TEAE: heartache [20]: 0.6%
- subjects with any study-drug-related TEAEs [20]: 12.4%
- clearance ([21]; CL/Fm): 160 mL/min
- half-life ([21]; mean plasma terminal elimination half-life): ~2.5 h
- half-life ([21]; t1/2): 1.6 h
- hemolytic anemia [22]: No evidence of hemolytic anemia
- incidence of deaths [22]: 2.9%
